Reference: publication PMC1253704, “Nitromusk and Polycyclic Musk Compounds as Long-Term Inhibitors of Cellular Xenobiotic Defense Systems Mediated by Multidrug Transporters” (Environmental Health Perspectives, 2004)
Like-named read-outs stand apart in the source and are kept apart here. Marks after values point to notes of the source that are not given here.

Experiments:
[1] = cited from earlier work
[2] = target: T1, efflux transporters in mussel gills (MXR transporters) (Mytilus californianus, UniProt B2WTH9); test: Competitive substrate/transporter inhibition assay: rhodamine B accumulation in mussel gill tissue disks; type: cell-based; settings: concentration causing 10% of maximal inhibition; mean ± SD; probit regression; 1 μM rhodamine B, 90 min, 15°C
T1 sequence (B2WTH9 1-1311): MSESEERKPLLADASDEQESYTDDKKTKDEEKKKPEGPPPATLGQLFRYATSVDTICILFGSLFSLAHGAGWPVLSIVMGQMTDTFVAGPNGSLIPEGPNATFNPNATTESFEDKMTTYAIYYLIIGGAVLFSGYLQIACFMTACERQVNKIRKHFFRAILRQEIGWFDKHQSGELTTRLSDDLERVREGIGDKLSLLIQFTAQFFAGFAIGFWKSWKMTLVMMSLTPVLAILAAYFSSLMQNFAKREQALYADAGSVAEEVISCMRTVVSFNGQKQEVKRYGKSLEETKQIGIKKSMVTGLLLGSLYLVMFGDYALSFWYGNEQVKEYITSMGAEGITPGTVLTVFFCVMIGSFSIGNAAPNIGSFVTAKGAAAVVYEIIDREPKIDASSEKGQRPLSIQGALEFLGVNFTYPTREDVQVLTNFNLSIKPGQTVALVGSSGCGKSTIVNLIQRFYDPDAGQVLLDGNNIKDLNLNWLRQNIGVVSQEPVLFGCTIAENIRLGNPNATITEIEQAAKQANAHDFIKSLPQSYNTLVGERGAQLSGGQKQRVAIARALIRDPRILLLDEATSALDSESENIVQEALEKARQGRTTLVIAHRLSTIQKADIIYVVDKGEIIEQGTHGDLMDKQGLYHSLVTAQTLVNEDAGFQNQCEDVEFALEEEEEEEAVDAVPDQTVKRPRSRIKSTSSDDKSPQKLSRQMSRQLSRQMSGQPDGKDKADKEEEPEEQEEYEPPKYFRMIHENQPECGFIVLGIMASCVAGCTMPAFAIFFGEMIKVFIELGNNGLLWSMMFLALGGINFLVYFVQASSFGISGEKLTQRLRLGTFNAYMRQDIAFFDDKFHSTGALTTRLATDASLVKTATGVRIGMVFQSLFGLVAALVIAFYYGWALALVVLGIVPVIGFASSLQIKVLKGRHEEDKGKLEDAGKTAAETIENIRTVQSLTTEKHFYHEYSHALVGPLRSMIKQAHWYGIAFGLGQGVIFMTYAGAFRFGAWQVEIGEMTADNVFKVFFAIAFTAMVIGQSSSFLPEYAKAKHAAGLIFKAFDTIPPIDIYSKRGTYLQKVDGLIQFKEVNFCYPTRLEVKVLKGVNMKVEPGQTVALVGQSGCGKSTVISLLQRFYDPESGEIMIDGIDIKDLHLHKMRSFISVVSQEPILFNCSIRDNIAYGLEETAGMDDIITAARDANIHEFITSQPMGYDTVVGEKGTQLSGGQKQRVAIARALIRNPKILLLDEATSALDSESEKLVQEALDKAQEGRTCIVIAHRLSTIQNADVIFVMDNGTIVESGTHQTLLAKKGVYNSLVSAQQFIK
Experimental: The fluorescent dye rhodamine B was used as an indicator of efflux transporter activity. […] Test solutions were prepared in FSW with 1 μM rhodamine B. Stocks of the test compounds dissolved in ethanol were added to FSW to the desired concentrations, and all solutions were adjusted to 1% ethanol along with an ethanol control. […] Incubations were performed in glass petri dishes (diameter, 5 cm) in a volume of 10 mL.
(§1) Gill tissue disks were incubated in test solutions with gentle rocking for 90 min at 15°C in the dark (n = 2–5 tissue disks per dish). After exposure, the tissue disks were briefly washed twice in FSW to remove external rhodamine B, frozen on dry ice or in liquid nitrogen, and stored at −20°C in the dark. […] The sonicates were then centrifuged at 13,000g for 5 min, and the supernatant was transferred to black 96-well microplates (Packard Instrument Co., Meriden, CT). The amount of dye in the supernatant was determined with a fluorescence microplate reader (Packard FluoroCount; […]). Rhodamine B extracts were kept dark and on ice at all times. At each reading, background fluorescence was determined with pure n-butanol and subtracted from each value.
(§2) Transport activities in treated gill disks were normalized relative to nontreated controls that were run for each individual. The ratios, which indicate relative increases in fluorescence, were used as a measure of inhibition by each compound at the specified concentrations. […] IC10 and IC50 values were determined by probit analysis using a macro program for Microsoft Excel written by J. Greve (Fraunhofer-Institut für Umweltchemie und Ökotoxikologie, Schmallenberg, Germany).

[3] = test system: efflux transporters in mussel gills (MXR transporters); test: Long-term inhibition: transporter activity assay after 2 hr exposure and 0, 24, 48 hr washing in FSW; type: cell-based, Mytilus californianus; settings: 1 μM test compound 2 hr
Experimental: as §1
(§3) To examine the duration of inhibitory effects after exposure to test compounds, six to nine gill tissue disks were incubated with 1 μM of test compounds for 2 hr. Transporter activity was then assayed in one-third of the disks immediately after exposure and in the others after 24 hr and 48 hr of washing in fresh FSW (50 mL). FSW was changed after 24 hr. During exposure and washing, dishes were gently rocked at 15°C in the dark. The transporter activity assay was performed with 1 μM rhodamine B as described above.
as §2

[4] = set-up: method as in Käfferlein et al. 1998; settings: ref Käfferlein et al. 1998, cited from earlier work
[5] = target: T1, efflux transporters in mussel gills (MXR transporters); test: Long-term inhibition: transporter activity assay after 2 hr exposure and 0, 24, 48 hr washing in FSW; type: cell-based; settings: 1 μM test compound 2 hr
Experimental: as §1, §3, §2

[6] = after 24 hr of washing, paired t-test p < 0.05

Row | SMILES | Log Kow ([1]; ref Balk et al. (2001)) | IC10 [2] [nM] | continuing inhibition of transporter activity, treatment versus control (in words) [3, 6] | continuing inhibition of transporter activity, treatment versus control (in words) ([3]; after 48 hr of washing) | Log Kow ([1]; ref Liu (2004)) | Concentrations found in blood plasma ([4]; human blood plasma) | Concentrations found in body fat and breast milk ([4]; human body fat and breast milk) [µmol/kg] | continuing inhibition of transporter activity, treatment versus control (in words) [5, 6] | continuing inhibition of transporter activity, treatment versus control (in words) ([5]; after 48 hr of washing)
1 | CC(=O)c1cc2c(cc1C)C(C)(C)C(C)C2C(C)C (centres unmarked) [ATII, 5-Acetyl-1,1,2,6-tetramethyl-3-isopropylindane] | 6.3^a | 320 ± 40 | significant | complete recovery | – | – | – | – | –
2 | CC1COCc2cc3c(cc21)C(C)(C)C(C)C3(C)C (centres unmarked) [HHCB, 1,3,4,6,7,8-Hexahydro-4,6,6,7,8,8-hexamethyl-cyclopenta-γ-[2]-benzopyran] | 5.9^a | 370 ± 160 | significant | trend of reduced activity | – | – | – | – | –
3 | CC(=O)c1cc(C(C)(C)C)cc2c1CCC2(C)C [ADBI, 4-Acetyl-1,1-dimethyl-6-tert-butylindane] | 5.9^a | 390 ± 340 | clear trends of increased rhodamine levels | trend of reduced activity | – | – | – | – | –
4 | CCN(CC)c1ccc2c(-c3ccccc3C(=O)O)c3ccc(=[N+](CC)CC)cc-3oc2c1 [Rhodamine B, reference compound] | – | – | – | – | 1.5^c | – | – | – | –
5 | Cc1c([N+](=O)[O-])c(C)c([N+](=O)[O-])c(C(C)(C)C)c1[N+](=O)[O-] [MX, 1-tert-Butyl-3,5-dimethyl-2,4,6-trinitrobenzene] | 4.9^a | 140 ± 120 | – | – | – | nanomolar range | 0.2 to 0.3 | significant | trend of reduced activity
6 | CC(=O)c1c(C)c([N+](=O)[O-])c(C(C)(C)C)c([N+](=O)[O-])c1C [MK, 1-tert-Butyl-3,5-dimethyl-2,6-dinitro-4-acetylbenzene] | 4.3^a | 90 ± 120 | clear trends of increased rhodamine levels | trend of reduced activity | – | – | – | – | –
